The results in this text go back to patent US20150018546A1, “HETEROCYCLIC COMPOUND HAVING ANTI-HIV ACTIVITY” (TOYAMA CHEMICAL CO., LTD., priority 2012, published 2015).

Counter-ions that a name gives are not always drawn. Like-named read-outs stand apart in the source and are kept apart here.

This experiment deals with HIV-1 (JRCSF). The experiment is described as follows: Anti-HIV activity in MaRBLE cells infected with HIV-1 (JRCSF), luciferase readout. The experiment is classed as cell-based. As to conditions: Human immunodeficiency virus 1, 168 h, read-out: Anti-HIV activity IC50. In short, it runs like this: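 HPB-M(a)-derived MaRBLE cells carrying HIV-1 LTR-luciferase and CCR5, infected with HIV-1 JRCSF, 1×10^5 cells/well in RPMI1640/10% FCS, cultured 7 days at 37 °C. Luciferase read; proliferation % relative to compound-free wells minus uninfected background; IC50 by linear regression on log concentration.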

The mark [1] stands for this setting: MaRBLE cells (human T lymphocyte-derived HPB-M(a)) infected with HIV-1 (JRCSF), 7 days culture, rate of viral proliferation by luciferase activity.

As a reminder, the IC50 is the concentration that gives 50% inhibition. In the case of `Cc1ncnc2c1c(NCc1cccc(F)c1)cc(=O)n2O` [Example 151, 5-((3-fluorobenzyl)amino)-8-hydroxy-4-methylpyrido[2,3-d]pyrimidin-7(8H)-one], the IC50 under setting [1] stood at 54 nM.

Consider `Cc1ncnc2c1c(NCc1ccc(C(C)C)cc1)cc(=O)n2O` [Example 152, 8-hydroxy-5-((4-isopropylbenzyl)amino)-4-methylpyrido[2,3-d]pyrimidin-7(8H)-one], for which the 50% inhibitory concentration (IC50) under setting [1] was found to be 95 nM.

Take `Cc1ncnc2c1c(NCc1ccco1)cc(=O)n2O` [Example 153, 5-((2-furylmethyl)amino)-8-hydroxy-4-methylpyrido[2,3-d]pyrimidin-7(8H)-one]: under setting [1], the IC50 is 130 nM.

Consider `Cc1ncnc2c1c(NCc1ncc[nH]1)cc(=O)n2O` [Example 154, 8-hydroxy-5-(((1H-imidazol-2-yl)methyl)amino)-4-methylpyrido[2,3-d]pyrimidin-7(8H)-one], for which the half-maximal inhibitory concentration (IC50) under setting [1] came to 720 nM.

For `Cc1ncnc2c1c(NCCCN(C)C)cc(=O)n2O` [Example 155, 5-((3-(dimethylamino)propyl)amino)-8-hydroxy-4-methylpyrido[2,3-d]pyrimidin-7(8H)-one hydrochloride], the half-maximal inhibitory concentration (IC50) is 230 nM.

Turning to `Cc1ncnc2c1c(NCC1CCN(C)CC1)cc(=O)n2O` [Example 156, 8-hydroxy-4-methyl-5-(((1-methylpiperidin-4-yl)methyl)amino)pyrido[2,3-d]pyrimidin-7(8H)-one], under setting [1], the IC50 is 590 nM.

With `COc1ncccc1CNc1cc(=O)n(O)c2ncnc(C)c12` [Example 157, 8-hydroxy-5-(((2-methoxypyridin-3-yl)methyl)amino)-4-methylpyrido[2,3-d]pyrimidin-7(8H)-one], under setting [1], the IC50 amounted to 44 nM.

Consider `COc1ccc(CNc2cc(=O)n(O)c3ncnc(C)c23)cn1` [Example 158, 8-hydroxy-5-(((2-methoxypyridin-5-yl)methyl)amino)-4-methylpyrido[2,3-d]pyrimidin-7(8H)-one], for which the IC50 under setting [1] amounted to 74 nM.

Consider `Cc1ncnc2c1c(NCc1ccccc1OC(F)(F)F)cc(=O)n2O` [Example 160, 8-hydroxy-4-methyl-5-((2-(trifluoromethoxy)benzyl)amino)pyrido[2,3-d]pyrimidin-7(8H)-one], for which, under setting [1], the IC50 came out at 68 nM.

For the compound `Cc1ncnc2c1c(NCCCc1cccnc1)cc(=O)n2O` [Example 161, 8-hydroxy-4-methyl-5-((3-(pyridin-3-yl)propyl)amino)pyrido[2,3-d]pyrimidin-7(8H)-one], under setting [1], the IC50 is 180 nM.

Turning to `Cc1ncnc2c1c(NCc1ccc(N)nc1)cc(=O)n2O` [Example 162, 5-(((6-aminopyridin-3-yl)methyl)amino)-8-hydroxy-4-methylpyrido[2,3-d]pyrimidin-7(8H)-one], under setting [1], the half-maximal inhibitory concentration (IC50) was 67 nM.

`Cc1ncnc2c1c(NC(C)c1ccccn1)cc(=O)n2O` (stereo not drawn) [Example 165, 8-hydroxy-4-methyl-5-((1-(pyridin-2-yl)ethyl)amino)pyrido[2,3-d]pyrimidin-7(8H)-one]: the half-maximal inhibitory concentration (IC50) under setting [1] was 160 nM.
